In patent US20100068299A1 (priority 2003, published 2010):

Experiment: Reversal of formed copper phosphite precipitate by added agent (Example 1)
Type: physicochemical
Conditions: agent added at final concentration of 10 mM; 0.6 g/l Cu(OH)2, 14.4 g/l KH2PO3, 1 g/l K2CO3, pH 5.5

O=C([O-])CN(CCN(CC(=O)[O-])CC(=O)O)CC(=O)O.[Na+].[Na+] [disodium EDTA]
effect on formed copper phosphite precipitate: immediately disappeared
